Measured values published in the NIST ThermoML archive (doi:10.1021/acs.jced.6b00516).
Numbers after ± are expanded uncertainties.

Test: wn = mass fraction of the nth substance listed
Details: 102 kPa, Liquid, Vibrating tube method

Structure (SMILES): CCCCC1CCCCC1 [butylcyclohexane] + Cc1ccccc1
- mass density (293.15 K, w1 = 0.1002): 858.58 ± 0.1 kg/m3
- mass density (293.15 K, w1 = 0.2175): 849.42 ± 0.1 kg/m3
- mass density (293.15 K, w1 = 0.3001): 843.23 ± 0.1 kg/m3
- mass density (293.15 K, w1 = 0.3999): 835.97 ± 0.1 kg/m3
- mass density (293.15 K, w1 = 0.5): 829.25 ± 0.1 kg/m3
- mass density (293.15 K, w1 = 0.6001): 822.67 ± 0.11 kg/m3
- mass density (293.15 K, w1 = 0.6995): 816.44 ± 0.11 kg/m3
- mass density (293.15 K, w1 = 0.8001): 810.43 ± 0.11 kg/m3
- mass density (293.15 K, w1 = 0.8996): 804.75 ± 0.11 kg/m3
- mass density (303.15 K, w1 = 0.1002): 849.47 ± 0.1 kg/m3
- mass density (303.15 K, w1 = 0.2175): 840.53 ± 0.1 kg/m3
- mass density (303.15 K, w1 = 0.3001): 834.5 ± 0.1 kg/m3
- mass density (303.15 K, w1 = 0.3999): 827.42 ± 0.11 kg/m3
- mass density (303.15 K, w1 = 0.5): 820.88 ± 0.11 kg/m3
- mass density (303.15 K, w1 = 0.6001): 814.48 ± 0.11 kg/m3
- mass density (303.15 K, w1 = 0.6995): 808.43 ± 0.11 kg/m3
- mass density (303.15 K, w1 = 0.8001): 802.58 ± 0.11 kg/m3
- mass density (303.15 K, w1 = 0.8996): 797.08 ± 0.11 kg/m3
- mass density (313.15 K, w1 = 0.1002): 840.29 ± 0.1 kg/m3
- mass density (313.15 K, w1 = 0.2175): 831.58 ± 0.1 kg/m3
- mass density (313.15 K, w1 = 0.3001): 825.72 ± 0.11 kg/m3
- mass density (313.15 K, w1 = 0.3999): 818.82 ± 0.11 kg/m3
- mass density (313.15 K, w1 = 0.5): 812.46 ± 0.11 kg/m3
- mass density (313.15 K, w1 = 0.6001): 806.25 ± 0.11 kg/m3
- mass density (313.15 K, w1 = 0.6995): 800.37 ± 0.11 kg/m3
- mass density (313.15 K, w1 = 0.8001): 794.7 ± 0.12 kg/m3
- mass density (313.15 K, w1 = 0.8996): 789.37 ± 0.12 kg/m3
- mass density (323.15 K, w1 = 0.1002): 831.04 ± 0.1 kg/m3
- mass density (323.15 K, w1 = 0.2175): 822.57 ± 0.11 kg/m3
- mass density (323.15 K, w1 = 0.3001): 816.86 ± 0.11 kg/m3
- mass density (323.15 K, w1 = 0.3999): 810.17 ± 0.11 kg/m3
- mass density (323.15 K, w1 = 0.5): 803.99 ± 0.11 kg/m3
- mass density (323.15 K, w1 = 0.6001): 797.96 ± 0.11 kg/m3
- mass density (323.15 K, w1 = 0.6995): 792.27 ± 0.12 kg/m3
- mass density (323.15 K, w1 = 0.8001): 786.78 ± 0.12 kg/m3
- mass density (323.15 K, w1 = 0.8996): 781.62 ± 0.12 kg/m3
- mass density (333.15 K, w1 = 0.1002): 821.72 ± 0.11 kg/m3
- mass density (333.15 K, w1 = 0.2175): 813.48 ± 0.11 kg/m3
- mass density (333.15 K, w1 = 0.3001): 807.94 ± 0.11 kg/m3
- mass density (333.15 K, w1 = 0.3999): 801.44 ± 0.11 kg/m3
- mass density (333.15 K, w1 = 0.5): 795.45 ± 0.12 kg/m3
- mass density (333.15 K, w1 = 0.6001): 789.62 ± 0.12 kg/m3
- mass density (333.15 K, w1 = 0.6995): 784.11 ± 0.12 kg/m3
- mass density (333.15 K, w1 = 0.8001): 778.81 ± 0.12 kg/m3
- mass density (333.15 K, w1 = 0.8996): 773.83 ± 0.12 kg/m3
- mass density (343.15 K, w1 = 0.1002): 812.2 ± 0.2 kg/m3
- mass density (343.15 K, w1 = 0.2175): 804.3 ± 0.2 kg/m3
- mass density (343.15 K, w1 = 0.3001): 798.8 ± 0.2 kg/m3
- mass density (343.15 K, w1 = 0.3999): 792.6 ± 0.2 kg/m3
- mass density (343.15 K, w1 = 0.5): 786.8 ± 0.2 kg/m3
- mass density (343.15 K, w1 = 0.6001): 781.3 ± 0.2 kg/m3
- mass density (343.15 K, w1 = 0.6995): 775.9 ± 0.2 kg/m3
- mass density (343.15 K, w1 = 0.8001): 770.7 ± 0.2 kg/m3
- mass density (343.15 K, w1 = 0.8996): 765.9 ± 0.2 kg/m3
- mass density (353.15 K, w1 = 0.1002): 802.7 ± 0.2 kg/m3
- mass density (353.15 K, w1 = 0.2175): 795.1 ± 0.2 kg/m3
- mass density (353.15 K, w1 = 0.3001): 789.7 ± 0.2 kg/m3
- mass density (353.15 K, w1 = 0.3999): 783.7 ± 0.2 kg/m3
- mass density (353.15 K, w1 = 0.5): 778.1 ± 0.2 kg/m3
- mass density (353.15 K, w1 = 0.6001): 772.8 ± 0.2 kg/m3
- mass density (353.15 K, w1 = 0.6995): 767.5 ± 0.2 kg/m3
- mass density (353.15 K, w1 = 0.8001): 762.6 ± 0.2 kg/m3
- mass density (353.15 K, w1 = 0.8996): 758 ± 0.2 kg/m3

Structure (SMILES): CCCCC1CCCCC1 [butylcyclohexane] + CCCCCCCCCCCCCCCC
- mass density (293.15 K, w1 = 0.1002): 775.85 ± 0.16 kg/m3
- mass density (293.15 K, w1 = 0.2): 778.23 ± 0.16 kg/m3
- mass density (293.15 K, w1 = 0.3001): 780.67 ± 0.16 kg/m3
- mass density (293.15 K, w1 = 0.3998): 783.16 ± 0.15 kg/m3
- mass density (293.15 K, w1 = 0.4998): 785.72 ± 0.15 kg/m3
- mass density (293.15 K, w1 = 0.6001): 788.34 ± 0.15 kg/m3
- mass density (293.15 K, w1 = 0.7): 791.01 ± 0.15 kg/m3
- mass density (293.15 K, w1 = 0.7999): 793.72 ± 0.15 kg/m3
- mass density (293.15 K, w1 = 0.8998): 796.48 ± 0.15 kg/m3
- mass density (303.15 K, w1 = 0.1002): 768.9 ± 0.16 kg/m3
- mass density (303.15 K, w1 = 0.2): 771.24 ± 0.16 kg/m3
- mass density (303.15 K, w1 = 0.3001): 773.65 ± 0.16 kg/m3
- mass density (303.15 K, w1 = 0.3998): 776.08 ± 0.16 kg/m3
- mass density (303.15 K, w1 = 0.4998): 778.59 ± 0.16 kg/m3
- mass density (303.15 K, w1 = 0.6001): 781.15 ± 0.15 kg/m3
- mass density (303.15 K, w1 = 0.7): 783.74 ± 0.15 kg/m3
- mass density (303.15 K, w1 = 0.7999): 786.38 ± 0.15 kg/m3
- mass density (303.15 K, w1 = 0.8998): 789.06 ± 0.15 kg/m3
- mass density (313.15 K, w1 = 0.1002): 761.94 ± 0.17 kg/m3
- mass density (313.15 K, w1 = 0.2): 764.25 ± 0.16 kg/m3
- mass density (313.15 K, w1 = 0.3001): 766.6 ± 0.16 kg/m3
- mass density (313.15 K, w1 = 0.3998): 768.99 ± 0.16 kg/m3
- mass density (313.15 K, w1 = 0.4998): 771.43 ± 0.16 kg/m3
- mass density (313.15 K, w1 = 0.6001): 773.92 ± 0.16 kg/m3
- mass density (313.15 K, w1 = 0.7): 776.44 ± 0.16 kg/m3
- mass density (313.15 K, w1 = 0.7999): 779 ± 0.15 kg/m3
- mass density (313.15 K, w1 = 0.8998): 781.6 ± 0.15 kg/m3
- mass density (323.15 K, w1 = 0.1002): 754.99 ± 0.17 kg/m3
- mass density (323.15 K, w1 = 0.2): 757.24 ± 0.17 kg/m3
- mass density (323.15 K, w1 = 0.3001): 759.55 ± 0.17 kg/m3
- mass density (323.15 K, w1 = 0.3998): 761.87 ± 0.16 kg/m3
- mass density (323.15 K, w1 = 0.4998): 764.25 ± 0.16 kg/m3
- mass density (323.15 K, w1 = 0.6001): 766.67 ± 0.16 kg/m3
- mass density (323.15 K, w1 = 0.7): 769.12 ± 0.16 kg/m3
- mass density (323.15 K, w1 = 0.7999): 771.6 ± 0.16 kg/m3
- mass density (323.15 K, w1 = 0.8998): 774.12 ± 0.16 kg/m3
- mass density (333.15 K, w1 = 0.1002): 748.02 ± 0.17 kg/m3
- mass density (333.15 K, w1 = 0.2): 750.22 ± 0.17 kg/m3
- mass density (333.15 K, w1 = 0.3001): 752.47 ± 0.17 kg/m3
- mass density (333.15 K, w1 = 0.3998): 754.73 ± 0.17 kg/m3
- mass density (333.15 K, w1 = 0.4998): 757.04 ± 0.17 kg/m3
- mass density (333.15 K, w1 = 0.6001): 759.39 ± 0.17 kg/m3
- mass density (333.15 K, w1 = 0.7): 761.76 ± 0.16 kg/m3
- mass density (333.15 K, w1 = 0.7999): 764.16 ± 0.16 kg/m3
- mass density (333.15 K, w1 = 0.8998): 766.6 ± 0.16 kg/m3
- mass density (343.15 K, w1 = 0.1002): 741.1 ± 0.18 kg/m3
- mass density (343.15 K, w1 = 0.2): 743.2 ± 0.17 kg/m3
- mass density (343.15 K, w1 = 0.3001): 745.35 ± 0.17 kg/m3
- mass density (343.15 K, w1 = 0.3998): 747.5 ± 0.17 kg/m3
- mass density (343.15 K, w1 = 0.4998): 749.8 ± 0.17 kg/m3
- mass density (343.15 K, w1 = 0.6001): 752.1 ± 0.17 kg/m3
- mass density (343.15 K, w1 = 0.7): 754.35 ± 0.17 kg/m3
- mass density (343.15 K, w1 = 0.7999): 756.6 ± 0.2 kg/m3
- mass density (343.15 K, w1 = 0.8998): 759 ± 0.16 kg/m3
- mass density (353.15 K, w1 = 0.1002): 734.1 ± 0.2 kg/m3
- mass density (353.15 K, w1 = 0.2): 736.1 ± 0.2 kg/m3
- mass density (353.15 K, w1 = 0.3001): 738.3 ± 0.2 kg/m3
- mass density (353.15 K, w1 = 0.3998): 740.3 ± 0.2 kg/m3
- mass density (353.15 K, w1 = 0.4998): 742.5 ± 0.2 kg/m3
- mass density (353.15 K, w1 = 0.6001): 744.7 ± 0.2 kg/m3
- mass density (353.15 K, w1 = 0.7): 746.9 ± 0.2 kg/m3
- mass density (353.15 K, w1 = 0.7999): 749.1 ± 0.2 kg/m3
- mass density (353.15 K, w1 = 0.8998): 751.4 ± 0.2 kg/m3
